Laboratory results as given in patent EP4803080A1, “METHOD FOR TREATING LEUKEMIA” (Shenzhen TargetRx Co., Ltd., priority 2023, dated 2025).

Key:
[1] = tested on: Ba/F3 BCR-ABL1 E255V/T315I; assay: Cell growth inhibition activity test, single agents and combinations (CellTiter-Glo, Chou-Talalay); type: cell-based; settings: Mus musculus, BaF3; single agent; E255V/T315I; 72 hours; read-out: IC50
Protocol: A series of cell lines expressing BCR-ABL1 single mutations and compound mutations were constructed based on the Ba/F3 mouse pro-B cell line.
This assay utilized the CellTiter-Glo (CTG) kit provided by Promega, which is a homogeneous method for cell viability detection, measuring the viability of cultured cells by quantifying ATP. Cells were seeded in 96-well plates and treated with different concentrations of test substances. […] At the end of the treatment, CTG reagent (CellTiter-Glo kit) was added according to the manufacturer's instructions to detect cell viability values. Plates were read on a microplate reader (Biotek cytation 3.0). IC50 values were calculated using GraphPad Prism 7.0 software.

[2] = tested on: CML-AP with T315I mutation; assay: Phase I dose escalation and dose expansion clinical trial: efficacy in CML-AP subjects with T315I mutation; type: in vivo, humans
Text: (§1) This study is a single-arm, open-label, dose-escalation and dose-expansion Phase I clinical trial.
(§2) The dose-escalation phase of this trial consists of about 8 dose groups, with oral administration under fasting conditions. Subjects in all dose groups will receive a single dose on Day 1 (D1), followed by pharmacokinetic (PK) and tolerability observations. […] After entering the multiple-dose period, subjects in the first dose group will initially receive twice-daily (BID) dosing (if PK data from the single-dose period are available, the dosing frequency during the multiple-dose period may be adjusted based on the PK data). The dosing frequency for subjects in subsequent dose groups after entering the multiple-dose period will be determined based on available PK and tolerability data. Throughout the trial, dosing frequency for all subjects may be adjusted based on continuously updated safety and PK data.
(§3) A continuous reassessment method (CRM) based on the principle of the escalation with overdose control (EWOC) design will be used to recommend the next specific dose for each dose escalation, thereby completing dose escalation and determining the maximum tolerated dose (MTD). If both the investigator and sponsor believe that higher dose groups may offer better efficacy and manageable safety, the EWOC-based CRM method may be used to explore higher doses. All enrolled subjects will receive long-term treatment with the test drug and undergo evaluations for safety, tolerability, and preliminary efficacy.
(§4) After obtaining certain research data from the dose-escalation phase, the investigator may comprehensively consider safety, efficacy, and other information to decide whether to enroll additional subjects at the MTD and/or lower dose levels to determine the recommended Phase II dose (RP2D). Two to four suitable dosing regimens will be selected for expansion in the target population (including subjects enrolled at the target dose levels during the escalation phase).
(§5) A total of 8 dose groups were established: 10 mg bid, 20 mg bid, 40 mg bid, 80 mg bid, 40 mg qd, 80 mg qd, 160 mg qd, and 240 mg qd.
(§6) The dose expansion phase was conducted in the following 3 cohorts: • Cohort 1: Subjects with chronic phase (CP) chronic myeloid leukemia (CML) who had previously received at least ≥2 different TKIs and were T315I-negative. A total of 3 dose groups were established: 40 mg qd, 80 mg qd, and 240 mg qd; • Cohort 2: Subjects with chronic phase (CP) chronic myeloid leukemia (CML) who have previously received ≥1 TKI and were T315I-positive. A total of 2 dose groups were established: 40 mg qd and 240 mg qd; • Cohort 3: Subjects with accelerated phase (AP) chronic myeloid leukemia (CML) who have previously received ≥1 TKI, regardless of T315I positivity. A total of 1 dose group was established: 240 mg qd.

[3] = tested on: chronic phase (CP) chronic myeloid leukemia (CML); assay: Phase I dose escalation and dose expansion clinical trial: efficacy in CML-CP subjects; type: in vivo, humans
Text: as §1, §2, §3, §4, §5, §6

[4] = CML-AP and T315I mutation, failed or intolerant to third-generation or later TKI therapy
[5] = CML-AP and T315I mutation, failed or intolerant to third-generation or later TKI therapy, 12 evaluable
[6] = CML-AP and T315I mutation, failed or intolerant to third-generation or later TKI therapy, Kaplan-Meier method
[7] = CML-AP subjects with T315I mutation, as of June 2, 2024
[8] = CML-CP subjects previously treated with ponatinib, olverembatinib, asciminib, and/or HS-10382, as of June 2, 2024
[9] = CML-CP subjects, all doses, 58 evaluable, as of August 24, 2023
[10] = CML-CP subjects, all doses, as of August 24, 2023
[11] = CML-CP subjects, as of June 2, 2024
[12] = CML-CP, 10 mg BID, 2 evaluable subjects, as of August 24, 2023
[13] = CML-CP, 20 mg BID, 3 evaluable subjects, as of August 24, 2023
[14] = CML-CP, 40 mg BID, 1 evaluable subject, as of August 24, 2023
[15] = CML-CP, 40 mg QD, 15 evaluable subjects, as of August 24, 2023
[16] = CML-CP, 40 mg/day Total, 18 evaluable subjects, as of August 24, 2023
[17] = CML-CP, 80 mg BID, 3 evaluable subjects, as of August 24, 2023
[18] = CML-CP, 80 mg QD, 2 evaluable subjects, as of August 24, 2023
[19] = CML-CP, 80 mg/day Total, 3 evaluable subjects, as of August 24, 2023
[20] = CML-CP, 160 mg QD, 1 evaluable subject, as of August 24, 2023
[21] = CML-CP, 160 mg/day Total, 4 evaluable subjects, as of August 24, 2023
[22] = CML-CP, 240 mg QD, 31 evaluable subjects, as of August 24, 2023
[23] = CML-CP, Total, all dose groups, 58 evaluable subjects, as of August 24, 2023

Question: For `O=C(Nc1ccc(OC(F)(F)Cl)cc1)c1cnc(N2CC[C@@H](F)C2)c(-c2cnccn2)c1` [Compound A, (R)-N-(4-(chlorodifluoromethoxy)phenyl)-6-(3-fluoropyrrolidin-1-yl)-5-(pyrazin-2-yl)nicotinamide], which IC50 [1] is on record?
Answer: 151 nM

Question: And the “median EFS” value [2, 4]?
Answer: 5.55 months

Question: And the “median PFS” value [2, 4]?
Answer: not reached

Question: What about the “median duration of MaHR response” value [2, 4] of the same molecule?
Answer: 11.93 months

Question: What about the “median time to achieve CCyR” value [2, 4] of the same molecule?
Answer: 4.19 (2.76, 5.62) months

Question: And the “median time to achieve MCyR” value [2, 4]?
Answer: 2.69 (2.69, 2.76) months

Question: And the CCyR [2, 5]?
Answer: 16.7%

Question: And the MCyR [2, 5]?
Answer: 25.0%

Question: And the MMR [2, 5]?
Answer: 8.3%

Question: And the MaHR ([2]; CML-AP and T315I mutation, failed or intolerant to third-generation or later TKI therapy, 13 evaluable)?
Answer: 76.9%

Question: What about the “12-month EFS rate” value [2, 6] of the same molecule?
Answer: 18.0%

Question: And the “12-month PFS rate” value [2, 6]?
Answer: 75.8%

Question: And the “18-month cumulative incidence rate of CCyR” value [2, 7]?
Answer: 30%

Question: What about the “18-month cumulative incidence rate of MCyR” value [2, 7] of the same molecule?
Answer: 36%

Question: And the “18-month cumulative incidence rate of MMR” value [2, 7]?
Answer: 15%

Question: What about the “18-month cumulative incidence of CCyR” value [3, 8] of the same molecule?
Answer: 17%

Question: And the “18-month cumulative incidence of MCyR” value [3, 8]?
Answer: 32%

Question: And the CHR ([3]; CML-CP subjects, all doses, 35 evaluable, as of August 24, 2023)?
Answer: 91.4%

Question: And the CCyR [3, 9]?
Answer: 34.5%

Question: And the MCyR [3, 9]?
Answer: 39.7%

Question: And the MMR ([3]; CML-CP subjects, all doses, 62 evaluable, as of August 24, 2023)?
Answer: 16.1%

Question: What about the “median time to CCyR” value [3, 10] of the same molecule?
Answer: 2.81 (2.76, 3.30) months

Question: And the “median time to MCyR” value [3, 10]?
Answer: 2.83 (2.76, 3.68) months

Question: And the “median time to MMR” value [3, 10]?
Answer: 2.81 (2.76, 5.49) months

Question: And the “CHR within 3 treatment cycles” value ([3]; CML-CP subjects, 49 evaluable, as of June 2, 2024)?
Answer: 82%

Question: What about the “18-month cumulative incidence rate for CCyR” value [3, 11] of the same molecule?
Answer: 40%

Question: What about the “18-month cumulative incidence rate for MCyR” value [3, 11] of the same molecule?
Answer: 52%

Question: What about the “18-month cumulative incidence rate for MMR” value [3, 11] of the same molecule?
Answer: 26%

Question: What about the CHR ([3]; CML-CP, 10 mg BID, 0 evaluable subjects, as of August 24, 2023) of the same molecule?
Answer: 0 n (%)

Question: What about the CCyR [3, 12] of the same molecule?
Answer: 1 (50.0) n (%)

Question: What about the MCyR [3, 12] of the same molecule?
Answer: 2 (100) n (%)

Question: And the MMR [3, 12]?
Answer: 1 (50.0) n (%)

Question: And the CHR ([3]; CML-CP, 20 mg BID, 2 evaluable subjects, as of August 24, 2023)?
Answer: 2 (100) n (%)

Question: What about the CCyR [3, 13] of the same molecule?
Answer: 2 (66.7) n (%)

Question: What about the MCyR [3, 13] of the same molecule?
Answer: 2 (66.7) n (%)

Question: And the MMR [3, 13]?
Answer: 0 n (%)

Question: And the CCyR [3, 14]?
Answer: 0 n (%)

Question: What about the CHR [3, 14] of the same molecule?
Answer: 1 (100) n (%)

Question: What about the MCyR [3, 14] of the same molecule?
Answer: 0 n (%)

Question: And the MMR [3, 14]?
Answer: 0 n (%)

Question: What about the CHR ([3]; CML-CP, 40 mg QD, 7 evaluable subjects, as of August 24, 2023) of the same molecule?
Answer: 6 (85.7) n (%)

Question: What about the CCyR [3, 15] of the same molecule?
Answer: 5 (33.3) n (%)

Question: And the MCyR [3, 15]?
Answer: 5 (33.3) n (%)

Question: And the MMR ([3]; CML-CP, 40 mg QD, 17 evaluable subjects, as of August 24, 2023)?
Answer: 3 (17.6) n (%)

Question: And the CHR ([3]; CML-CP, 40 mg/day Total, 9 evaluable subjects, as of August 24, 2023)?
Answer: 8 (88.9) n (%)

Question: And the CCyR [3, 16]?
Answer: 7 (38.9) n (%)

Question: What about the MCyR [3, 16] of the same molecule?
Answer: 7 (38.9) n (%)

Question: And the MMR ([3]; CML-CP, 40 mg/day Total, 20 evaluable subjects, as of August 24, 2023)?
Answer: 3 (15.0) n (%)

Question: What about the CHR ([3]; CML-CP, 80 mg BID, 2 evaluable subjects, as of August 24, 2023) of the same molecule?
Answer: 2 (100) n (%)

Question: And the CCyR [3, 17]?
Answer: 1 (33.3) n (%)

Question: And the MCyR [3, 17]?
Answer: 1 (33.3) n (%)

Question: What about the MMR [3, 17] of the same molecule?
Answer: 1 (33.3) n (%)

Question: What about the CCyR [3, 18] of the same molecule?
Answer: 1 (50.0) n (%)

Question: And the MCyR [3, 18]?
Answer: 1 (50.0) n (%)

Question: What about the MMR [3, 18] of the same molecule?
Answer: 0 n (%)

Question: What about the CHR ([3]; CML-CP, 80 mg QD, 3 evaluable subjects, as of August 24, 2023) of the same molecule?
Answer: 3 (100) n (%)

Question: What about the CCyR [3, 19] of the same molecule?
Answer: 1 (33.3) n (%)

Question: And the MCyR [3, 19]?
Answer: 1 (33.3) n (%)

Question: What about the MMR [3, 19] of the same molecule?
Answer: 0 n (%)

Question: And the CHR ([3]; CML-CP, 80 mg/day Total, 4 evaluable subjects, as of August 24, 2023)?
Answer: 4 (100) n (%)

Question: And the CCyR [3, 20]?
Answer: 1 (100) n (%)

Question: And the CHR [3, 20]?
Answer: 1 (100) n (%)

Question: What about the MCyR [3, 20] of the same molecule?
Answer: 1 (100) n (%)

Question: What about the MMR [3, 20] of the same molecule?
Answer: 1 (100) n (%)

Question: And the CHR ([3]; CML-CP, 160 mg/day Total, 3 evaluable subjects, as of August 24, 2023)?
Answer: 3 (100) n (%)

Question: And the CCyR [3, 21]?
Answer: 2 (50.0) n (%)

Question: And the MCyR [3, 21]?
Answer: 2 (50.0) n (%)

Question: What about the MMR [3, 21] of the same molecule?
Answer: 2 (50.0) n (%)

Question: What about the CHR ([3]; CML-CP, 240 mg QD, 19 evaluable subjects, as of August 24, 2023) of the same molecule?
Answer: 17 (89.5) n (%)

Question: What about the CCyR [3, 22] of the same molecule?
Answer: 9 (29.0) n (%)

Question: What about the MCyR [3, 22] of the same molecule?
Answer: 11 (35.5) n (%)

Question: What about the MMR ([3]; CML-CP, 240 mg QD, 33 evaluable subjects, as of August 24, 2023) of the same molecule?
Answer: 4 (12.1) n (%)

Question: What about the CHR ([3]; CML-CP, Total, all dose groups, 35 evaluable subjects, as of August 24, 2023) of the same molecule?
Answer: 32 (91.4) n (%)

Question: And the CCyR [3, 23]?
Answer: 20 (34.5) n (%)

Question: What about the MCyR [3, 23] of the same molecule?
Answer: 23 (39.7) n (%)

Question: And the MMR ([3]; CML-CP, Total, all dose groups, 62 evaluable subjects, as of August 24, 2023)?
Answer: 10 (16.1) n (%)
